Where two headings read alike, the source gives them in different places.
How the values were obtained:
Assay in all cases: biochemical
BMPR1A = BMPR1A (Homo sapiens, UniProt P36894)
MYLK2 = MYLK2 (Homo sapiens, UniProt Q9H1R3)
HIPK1 = HIPK1 (Homo sapiens, UniProt Q86Z02)
FER = FER (Homo sapiens, UniProt P16591)
FLT3(ITD) = FLT3(ITD) (Homo sapiens, UniProt P36888, ITD)
MST1R = MST1R (Homo sapiens, UniProt Q04912)
ADCK3 = ADCK3 (Homo sapiens, UniProt Q8NI60)
MAP3K3 = MAP3K3 (Homo sapiens, UniProt Q99759)
MYLK = MYLK (Homo sapiens, UniProt Q15746)
FGR = FGR (Homo sapiens, UniProt P09769)
CLK1 = CLK1 (Homo sapiens, UniProt P49759)
KIT(D816V) = KIT(D816V) (Homo sapiens, UniProt P10721, D816V)
FLT3(D835Y) = FLT3(D835Y) (Homo sapiens, UniProt P36888, D835Y)
CAMK2A = CAMK2A (Homo sapiens, UniProt Q9UQM7)
DRAK2 = DRAK2 (Homo sapiens, UniProt O94768)
ADCK4 = ADCK4 (Homo sapiens, UniProt Q96D53)
CDK11 = CDK11 (Homo sapiens, UniProt Q9BWU1)
IKK-alpha = IKK-alpha (Homo sapiens, UniProt O15111)
LZK = LZK (Homo sapiens, UniProt O43283)
BRSK1 = BRSK1 (Homo sapiens, UniProt Q8TDC3)
MAP3K15 = MAP3K15 (Homo sapiens, UniProt Q6ZN16)
AXL = AXL (Homo sapiens, UniProt P30530)
LRRK2 = LRRK2 (Homo sapiens, UniProt Q5S007)
BLK = BLK (Homo sapiens, UniProt P51451)
MAP3K1 = MAP3K1 (Homo sapiens, UniProt Q13233)
DRAK1 = DRAK1 (Homo sapiens, UniProt Q9UEE5)
ALK = ALK (Homo sapiens, UniProt Q9UM73)
MINK = MINK (Homo sapiens, UniProt Q8N4C8)
CDKL1 = CDKL1 (Homo sapiens, UniProt Q00532)
KIT(V559D) = KIT(V559D) (Homo sapiens, UniProt P10721, V559D)
[1] = read-out: CPT-1-70-1 (1uM) % control
[2] = read-out: HYJ-2-002-1 (1uM) % control

Sequence of ALK (Q9UM73 whole entry): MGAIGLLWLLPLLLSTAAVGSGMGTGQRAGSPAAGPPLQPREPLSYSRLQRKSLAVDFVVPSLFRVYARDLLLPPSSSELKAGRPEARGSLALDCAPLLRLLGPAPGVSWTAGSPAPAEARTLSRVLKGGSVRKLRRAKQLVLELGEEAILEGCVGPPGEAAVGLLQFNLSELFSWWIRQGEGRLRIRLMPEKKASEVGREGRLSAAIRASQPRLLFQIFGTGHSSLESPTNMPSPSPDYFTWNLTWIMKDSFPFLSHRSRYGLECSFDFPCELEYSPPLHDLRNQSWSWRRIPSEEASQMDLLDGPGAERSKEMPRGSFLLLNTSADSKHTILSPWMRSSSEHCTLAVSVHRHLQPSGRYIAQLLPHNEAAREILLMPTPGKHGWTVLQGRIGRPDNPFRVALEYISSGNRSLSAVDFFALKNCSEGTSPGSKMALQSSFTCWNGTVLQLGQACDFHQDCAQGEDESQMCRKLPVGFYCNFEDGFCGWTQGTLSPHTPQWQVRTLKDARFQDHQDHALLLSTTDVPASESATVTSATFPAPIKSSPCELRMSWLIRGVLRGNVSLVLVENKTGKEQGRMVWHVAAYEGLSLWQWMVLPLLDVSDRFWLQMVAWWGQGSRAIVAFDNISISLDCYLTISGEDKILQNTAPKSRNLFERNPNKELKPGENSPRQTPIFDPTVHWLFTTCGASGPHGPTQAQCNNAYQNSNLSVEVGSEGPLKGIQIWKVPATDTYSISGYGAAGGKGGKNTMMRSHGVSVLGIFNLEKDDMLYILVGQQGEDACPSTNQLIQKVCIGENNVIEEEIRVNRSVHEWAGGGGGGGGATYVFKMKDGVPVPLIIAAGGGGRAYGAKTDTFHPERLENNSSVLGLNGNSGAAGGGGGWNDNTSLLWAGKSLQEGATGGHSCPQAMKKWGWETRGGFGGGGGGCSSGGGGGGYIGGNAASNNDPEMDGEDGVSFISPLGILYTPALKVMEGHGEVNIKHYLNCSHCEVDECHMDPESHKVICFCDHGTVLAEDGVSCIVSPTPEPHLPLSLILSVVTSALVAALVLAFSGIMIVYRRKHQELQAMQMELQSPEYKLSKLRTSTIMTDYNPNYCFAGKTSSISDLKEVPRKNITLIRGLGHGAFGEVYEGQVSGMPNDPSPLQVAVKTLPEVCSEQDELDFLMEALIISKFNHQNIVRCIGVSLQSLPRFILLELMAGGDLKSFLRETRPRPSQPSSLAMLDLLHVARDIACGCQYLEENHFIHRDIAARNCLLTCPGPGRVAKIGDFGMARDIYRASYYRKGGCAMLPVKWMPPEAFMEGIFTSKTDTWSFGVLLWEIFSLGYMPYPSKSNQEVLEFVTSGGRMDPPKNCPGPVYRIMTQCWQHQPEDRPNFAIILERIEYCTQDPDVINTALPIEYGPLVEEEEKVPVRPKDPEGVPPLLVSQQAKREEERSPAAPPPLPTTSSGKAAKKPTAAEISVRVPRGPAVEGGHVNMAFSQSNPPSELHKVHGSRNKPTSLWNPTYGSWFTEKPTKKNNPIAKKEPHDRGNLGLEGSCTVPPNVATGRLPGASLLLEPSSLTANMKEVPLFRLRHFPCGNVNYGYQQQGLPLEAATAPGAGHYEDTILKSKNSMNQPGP
Sequence of MYLK2 (Q9H1R3 whole entry): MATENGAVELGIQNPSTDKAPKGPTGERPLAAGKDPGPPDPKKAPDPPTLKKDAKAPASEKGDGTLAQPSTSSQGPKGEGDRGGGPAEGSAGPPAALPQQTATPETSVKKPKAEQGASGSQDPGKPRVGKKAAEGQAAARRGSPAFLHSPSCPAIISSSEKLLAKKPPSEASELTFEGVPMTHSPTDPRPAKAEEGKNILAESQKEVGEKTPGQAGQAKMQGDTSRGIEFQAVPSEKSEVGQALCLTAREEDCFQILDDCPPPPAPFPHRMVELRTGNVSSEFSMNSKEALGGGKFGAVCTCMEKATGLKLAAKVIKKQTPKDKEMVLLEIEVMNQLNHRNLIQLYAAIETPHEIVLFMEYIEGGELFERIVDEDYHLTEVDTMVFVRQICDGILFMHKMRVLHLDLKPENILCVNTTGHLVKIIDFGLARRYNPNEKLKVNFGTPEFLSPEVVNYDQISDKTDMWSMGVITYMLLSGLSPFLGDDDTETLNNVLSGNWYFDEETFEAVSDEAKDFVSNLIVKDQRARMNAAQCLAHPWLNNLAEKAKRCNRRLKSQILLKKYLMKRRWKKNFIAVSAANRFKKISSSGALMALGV
Sequence of KIT(V559D) (P10721 whole entry V559D): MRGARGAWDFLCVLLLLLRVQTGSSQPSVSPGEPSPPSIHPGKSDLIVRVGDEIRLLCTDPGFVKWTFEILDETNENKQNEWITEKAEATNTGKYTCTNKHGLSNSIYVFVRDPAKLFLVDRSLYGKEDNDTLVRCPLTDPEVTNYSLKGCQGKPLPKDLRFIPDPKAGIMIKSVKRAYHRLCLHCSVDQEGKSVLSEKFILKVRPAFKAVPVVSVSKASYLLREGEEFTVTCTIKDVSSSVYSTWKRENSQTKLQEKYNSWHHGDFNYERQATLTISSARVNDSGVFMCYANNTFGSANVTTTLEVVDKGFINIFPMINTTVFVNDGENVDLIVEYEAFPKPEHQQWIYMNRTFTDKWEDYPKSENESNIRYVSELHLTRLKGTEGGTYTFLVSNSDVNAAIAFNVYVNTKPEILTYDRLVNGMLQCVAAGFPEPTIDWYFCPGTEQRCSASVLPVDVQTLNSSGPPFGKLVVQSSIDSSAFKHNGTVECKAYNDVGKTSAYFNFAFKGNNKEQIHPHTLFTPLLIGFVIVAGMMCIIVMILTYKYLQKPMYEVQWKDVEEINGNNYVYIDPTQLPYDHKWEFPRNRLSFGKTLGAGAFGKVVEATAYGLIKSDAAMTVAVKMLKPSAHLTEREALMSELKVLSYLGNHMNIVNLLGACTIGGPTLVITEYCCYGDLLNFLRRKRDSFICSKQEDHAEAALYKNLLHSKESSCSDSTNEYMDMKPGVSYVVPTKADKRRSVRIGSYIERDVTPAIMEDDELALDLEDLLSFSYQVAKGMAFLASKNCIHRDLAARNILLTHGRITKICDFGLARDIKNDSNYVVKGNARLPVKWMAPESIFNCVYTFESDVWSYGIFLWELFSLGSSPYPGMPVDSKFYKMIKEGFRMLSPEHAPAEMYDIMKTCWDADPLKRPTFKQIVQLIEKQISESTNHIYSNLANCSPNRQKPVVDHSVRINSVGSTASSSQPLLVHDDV
Sequence of DRAK1 (Q9UEE5 whole entry): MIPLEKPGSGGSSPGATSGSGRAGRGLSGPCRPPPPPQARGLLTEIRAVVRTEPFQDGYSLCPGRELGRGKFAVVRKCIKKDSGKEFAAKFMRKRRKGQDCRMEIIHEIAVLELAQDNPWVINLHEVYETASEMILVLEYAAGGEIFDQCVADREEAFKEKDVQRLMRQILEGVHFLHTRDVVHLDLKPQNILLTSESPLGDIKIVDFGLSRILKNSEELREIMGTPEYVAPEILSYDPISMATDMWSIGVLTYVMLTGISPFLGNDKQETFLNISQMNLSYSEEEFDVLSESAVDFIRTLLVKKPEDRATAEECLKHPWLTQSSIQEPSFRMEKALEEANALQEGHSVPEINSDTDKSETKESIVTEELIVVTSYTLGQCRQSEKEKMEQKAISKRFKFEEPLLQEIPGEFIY
Sequence of KIT(D816V) (P10721 whole entry D816V): as the sequence (P10721 whole entry V559D) above, with D559V, D816V counted along it
Sequence of MAP3K3 (Q99759 whole entry): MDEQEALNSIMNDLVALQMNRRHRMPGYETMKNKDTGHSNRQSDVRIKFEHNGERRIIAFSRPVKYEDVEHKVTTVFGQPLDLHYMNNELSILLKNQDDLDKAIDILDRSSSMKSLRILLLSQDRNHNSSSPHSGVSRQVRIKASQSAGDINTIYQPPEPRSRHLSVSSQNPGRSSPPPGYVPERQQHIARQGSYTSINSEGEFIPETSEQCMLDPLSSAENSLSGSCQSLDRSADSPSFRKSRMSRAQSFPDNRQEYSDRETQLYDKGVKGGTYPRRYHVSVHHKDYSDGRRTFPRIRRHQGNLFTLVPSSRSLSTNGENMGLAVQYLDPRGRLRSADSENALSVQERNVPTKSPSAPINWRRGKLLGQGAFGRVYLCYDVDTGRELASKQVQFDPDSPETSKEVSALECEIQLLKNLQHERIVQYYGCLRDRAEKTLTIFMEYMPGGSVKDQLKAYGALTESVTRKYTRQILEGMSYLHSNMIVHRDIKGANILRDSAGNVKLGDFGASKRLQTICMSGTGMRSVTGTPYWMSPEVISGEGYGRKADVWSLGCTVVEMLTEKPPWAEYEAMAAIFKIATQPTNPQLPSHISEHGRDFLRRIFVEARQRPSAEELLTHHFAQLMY
Sequence of BLK (P51451 whole entry): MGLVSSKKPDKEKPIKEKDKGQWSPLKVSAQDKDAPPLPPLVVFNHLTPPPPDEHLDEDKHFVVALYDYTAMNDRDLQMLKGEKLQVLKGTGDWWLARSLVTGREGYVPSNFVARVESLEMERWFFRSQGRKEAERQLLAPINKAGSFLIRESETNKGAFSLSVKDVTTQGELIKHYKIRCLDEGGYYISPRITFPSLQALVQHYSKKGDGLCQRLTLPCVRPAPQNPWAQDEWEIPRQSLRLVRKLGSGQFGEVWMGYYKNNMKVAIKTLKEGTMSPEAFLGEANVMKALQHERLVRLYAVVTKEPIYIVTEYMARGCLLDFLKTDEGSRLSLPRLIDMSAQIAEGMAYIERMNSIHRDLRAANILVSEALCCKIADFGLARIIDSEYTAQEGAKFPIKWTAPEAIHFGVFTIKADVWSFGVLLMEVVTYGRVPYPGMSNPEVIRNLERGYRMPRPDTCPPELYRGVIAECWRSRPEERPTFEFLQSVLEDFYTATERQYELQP

## CN1CCN(c2ccc(Nc3nc(Oc4ccc(NC(=O)CCl)cc4)c4cc[nH]c4n3)cc2)CC1 [CPT1-70-1]
BMPR1A; [1]
  remaining activity at 1 µM: 100%
MYLK2; [1]
  remaining activity at 1 µM: 86%
HIPK1; [1]
  remaining activity at 1 µM: 52%
FER; [1]
  remaining activity at 1 µM: 45%
FLT3(ITD); [1]
  remaining activity at 1 µM: 1.6%
MST1R; [1]
  remaining activity at 1 µM: 100%
ADCK3; [1]
  remaining activity at 1 µM: 100%
MAP3K3; [1]
  remaining activity at 1 µM: 16%
MYLK; [1]
  remaining activity at 1 µM: 100%
FGR; [1]
  remaining activity at 1 µM: 4.2%
CLK1; [1]
  remaining activity at 1 µM: 5.8%
KIT(D816V); [1]
  remaining activity at 1 µM: 60%
FLT3(D835Y); [1]
  remaining activity at 1 µM: 0.35%
CAMK2A; [1]
  remaining activity at 1 µM: 95%
DRAK2; [1]
  remaining activity at 1 µM: 90%
ADCK4; [1]
  remaining activity at 1 µM: 91%
CDK11; [1]
  remaining activity at 1 µM: 100%
IKK-alpha; [1]
  remaining activity at 1 µM: 85%
LZK; [1]
  remaining activity at 1 µM: 73%
BRSK1; [1]
  remaining activity at 1 µM: 100%
MAP3K15; [1]
  remaining activity at 1 µM: 100%
AXL; [1]
  remaining activity at 1 µM: 4.8%
LRRK2; [1]
  remaining activity at 1 µM: 7.5%
BLK; [1]
  remaining activity at 1 µM: 1.6%
MAP3K1; [1]
  remaining activity at 1 µM: 100%
DRAK1; [1]
  remaining activity at 1 µM: 14%
ALK; [1]
  remaining activity at 1 µM: 38%
MINK; [1]
  remaining activity at 1 µM: 41%
CDKL1; [1]
  remaining activity at 1 µM: 66%
KIT(V559D); [1]
  remaining activity at 1 µM: 15%

## CCN1CCN(Cc2ccc(NC(=O)c3ccc(C)c(CCc4cnc5[nH]ccc5c4OC)c3)cc2C(F)(F)F)CC1 [HYJ-2-002-1]
BMPR1A; [2]
  remaining activity at 1 µM: 100%
MYLK2; [2]
  remaining activity at 1 µM: 0.85%
HIPK1; [2]
  remaining activity at 1 µM: 51%
FER; [2]
  remaining activity at 1 µM: 56%
FLT3(ITD); [2]
  remaining activity at 1 µM: 2.3%
MST1R; [2]
  remaining activity at 1 µM: 100%
ADCK3; [2]
  remaining activity at 1 µM: 100%
MAP3K3; [2]
  remaining activity at 1 µM: 1.6%
MYLK; [2]
  remaining activity at 1 µM: 100%
FGR; [2]
  remaining activity at 1 µM: 0.75%
CLK1; [2]
  remaining activity at 1 µM: 57%
KIT(D816V); [2]
  remaining activity at 1 µM: 9.2%
FLT3(D835Y); [2]
  remaining activity at 1 µM: 38%
CAMK2A; [2]
  remaining activity at 1 µM: 100%
DRAK2; [2]
  remaining activity at 1 µM: 57%
ADCK4; [2]
  remaining activity at 1 µM: 100%
CDK11; [2]
  remaining activity at 1 µM: 14%
IKK-alpha; [2]
  remaining activity at 1 µM: 0.2%
LZK; [2]
  remaining activity at 1 µM: 78%
BRSK1; [2]
  remaining activity at 1 µM: 97%
MAP3K15; [2]
  remaining activity at 1 µM: 100%
AXL; [2]
  remaining activity at 1 µM: 21%
LRRK2; [2]
  remaining activity at 1 µM: 94%
BLK; [2]
  remaining activity at 1 µM: 0.1%
MAP3K1; [2]
  remaining activity at 1 µM: 83%
DRAK1; [2]
  remaining activity at 1 µM: 82%
ALK; [2]
  remaining activity at 1 µM: 75%
MINK; [2]
  remaining activity at 1 µM: 33%
CDKL1; [2]
  remaining activity at 1 µM: 94%
KIT(V559D); [2]
  remaining activity at 1 µM: 0%
